# Laboratory results from ChEMBL document CHEMBL4229545, “Oximes short-acting CB1 receptor agonists” (Bioorg Med Chem, 2018).
# Calls of active or inactive are those of the source. The rule behind the calls is not given here.
# Key:
# [1] = AUC in CD1 mouse kidney at 10 mg/kg, po; type: ADME, organism-based
# [2] = AUC in CD1 mouse spleen at 10 mg/kg, po; type: ADME, organism-based
# [3] = target: Cannabinoid receptor 1 (Rattus norvegicus) (UniProt P20272); test: Agonist activity at recombinant rat Cb1 receptor expressed in HEK293 cells assessed as inhibition of forskolin-stimulated cAMP levels relative to control; type: functional, cell-based
# [4] = Half life in simulated gastric fluid; type: ADME
# Mus musculus [5] = test: Analgesic activity in CD1 mouse model of thermal-induced nociception assessed as tail withdrawal latency at 1 mg/kg, ip measured after 180 to 360 mins by tail flick test; type: functional, organism-based
# [6] = Half life in CD1 mouse at 2 mg/kg, iv; type: ADME, organism-based; conditions: in vivo
# Cannabinoid receptor 1 [7] = target: T1, Cannabinoid receptor 1 (Rattus norvegicus, UniProt P20272); test: Displacement of [3H]CP-55,940 from rat brain Cb1 receptor
# [8] = AUC in CD1 mouse at 2 mg/kg, iv; type: ADME, organism-based; conditions: in vivo
# [9] = AUC in CD1 mouse plasma at 2 mg/kg, iv; type: ADME, organism-based
# [10] = AUC in CD1 mouse fat at 10 mg/kg, po; type: ADME, organism-based, Adipose tissue
# [11] = Half life in rat liver microsomes; type: ADME, microsome
# Cannabinoid receptor 2 [12] = target: T2, Cannabinoid receptor 2 (Homo sapiens, UniProt P34972); test: Agonist activity at recombinant human Cb2 receptor expressed in HEK293 cells assessed as inhibition of forskolin-stimulated cAMP levels; type: functional, cell-based; conditions: read-out: EC50
# Cannabinoid receptor 2 [13] = target: T2, Cannabinoid receptor 2; test: Displacement of [3H]CP-55,940 from recombinant human Cb2 receptor expressed in HEK293 cells; type: cell-based
# [14] = AUC in CD1 mouse plasma at 10 mg/kg, po; type: ADME, organism-based
# Rattus norvegicus [15] = test: Induction of hypothermia in Sprague-Dawley rat assessed as decrease in body temperature at 1 to 10 mg/kg, ip measured after 180 to 360 mins; type: functional, organism-based
# [16] = Ratio of AUC in plasma to spleen of CD1 mouse at 10 mg/kg, po; type: ADME, organism-based; conditions: in vivo
# [17] = Tmax in CD1 mouse at 10 mg/kg, po; type: ADME, organism-based; conditions: in vivo
# [18] = Half life in mouse liver microsomes; type: ADME, microsome
# Rattus norvegicus [19] = test: Induction of hypothermia in Sprague-Dawley rat assessed as decrease in body temperature at 1 mg/kg, ip measured after 24 hrs; type: functional, organism-based
# Cannabinoid receptor 1 [20] = target: T1, Cannabinoid receptor 1; test: Agonist activity at recombinant rat Cb1 receptor expressed in HEK293 cells assessed as inhibition of forskolin-stimulated cAMP levels; type: functional, cell-based
# Cannabinoid receptor 2 [21] = target: T2, Cannabinoid receptor 2; test: Agonist activity at recombinant human Cb2 receptor expressed in HEK293 cells assessed as inhibition of forskolin-stimulated cAMP levels relative to CP-55940; type: functional, cell-based
# [22] = Half life in mouse plasma; type: ADME, cell-free
# Rattus norvegicus [23] = test: Induction of hypothermia in Sprague-Dawley rat assessed as decrease in body temperature at 1 mg/kg, ip measured after 3 to 6 hrs; type: functional, organism-based
# [24] = Ratio of AUC in plasma to brain of CD1 mouse at 2 mg/kg, iv; type: ADME, organism-based; conditions: in vivo
# [25] = AUC in CD1 mouse liver at 2 mg/kg, iv; type: ADME, organism-based
# [26] = AUC in CD1 mouse fat at 2 mg/kg, iv; type: ADME, organism-based, Adipose tissue
# [27] = AUC in CD1 mouse brain at 10 mg/kg, po; type: ADME, organism-based
# [28] = Half life in CD1 mouse at 10 mg/kg, po; type: ADME, organism-based; conditions: in vivo
# [29] = AUC in CD1 mouse liver at 10 mg/kg, po; type: ADME, organism-based
# Cannabinoid receptor 2 [30] = target: Cannabinoid receptor 2 (Mus musculus, UniProt P47936); test: Displacement of [3H]CP-55,940 from recombinant mouse Cb2 receptor expressed in HEK293 cells; type: cell-based
# [31] = Ratio of AUC in plasma to brain of CD1 mouse at 10 mg/kg, po; type: ADME, organism-based; conditions: in vivo
# [32] = Ratio of AUC in plasma to kidney of CD1 mouse at 2 mg/kg, iv; type: ADME, organism-based; conditions: in vivo
# [33] = AUC in CD1 mouse spleen at 2 mg/kg, iv; type: ADME, organism-based
# [34] = Volume of distribution in CD1 mouse at 2 mg/kg, iv; type: ADME, organism-based; conditions: in vivo
# Mus musculus [35] = test: Analgesic activity in ip dosed CD1 mouse model of thermal-induced nociception assessed as tail withdrawal latency measured after 20 mins by tail flick test; type: functional
# [36] = Ratio of AUC in plasma to urine of CD1 mouse at 10 mg/kg, po; type: ADME, organism-based; conditions: in vivo
# [37] = AUC in CD1 mouse brain at 2 mg/kg, iv; type: ADME, organism-based
# [38] = Ratio of AUC in plasma to kidney of CD1 mouse at 10 mg/kg, po; type: ADME, organism-based; conditions: in vivo
# [39] = Ratio of AUC in plasma to liver of CD1 mouse at 2 mg/kg, iv; type: ADME, organism-based; conditions: in vivo
# [40] = Half life in rat plasma; type: ADME, cell-free
# [41] = Ratio of AUC in plasma to fat of CD1 mouse at 2 mg/kg, iv; type: ADME, organism-based, Adipose tissue/Plasma; conditions: in vivo
# [42] = target: Cannabinoid receptor 1 (Rattus norvegicus) (UniProt P20272); test: Displacement of [3H]CP-55,940 from rat brain Cb1 receptor expressed in HEK293 cells at 10 times Ki measured after 1 hr relative to control; type: cell-based
# [43] = Ratio of AUC in plasma to fat of CD1 mouse at 10 mg/kg, po; type: ADME, organism-based, Adipose tissue/Plasma; conditions: in vivo
# Mus musculus [44] = test: Volume of distribution in CD1 mouse at 10 mg/kg, po; type: ADME, organism-based; conditions: in vivo
# [45] = AUC in CD1 mouse at 10 mg/kg, po; type: ADME, organism-based; conditions: in vivo
# [46] = target: Cannabinoid receptor 1 (Rattus norvegicus) (UniProt P20272); test: Displacement of [3H]CP-55,940 from rat brain Cb1 receptor expressed in HEK293 cells at 10 times Ki incubated for 1 hr followed by 5 times membrane washout; type: cell-based
# [47] = Half life in human plasma; type: ADME, cell-free
# [48] = Ratio of AUC in plasma to liver of CD1 mouse at 10 mg/kg, po; type: ADME, organism-based; conditions: in vivo
# [49] = AUC in CD1 mouse urine at 10 mg/kg, po; type: ADME, organism-based
# [50] = AUC in CD1 mouse kidney at 2 mg/kg, iv; type: ADME, organism-based
# [51] = Half life in human liver microsomes; type: ADME, microsome
# [52] = Ratio of AUC in plasma to spleen of CD1 mouse at 2 mg/kg, iv; type: ADME, organism-based; conditions: in vivo
# Rattus norvegicus [53] = organism: Rattus norvegicus; conditions: Sprague-Dawley
# Description: Induction of hypothermia in ip dosed Sprague-Dawley rat assessed as decrease in body temperature measured up to 180 mins
# T2 sequence (P34972 whole entry): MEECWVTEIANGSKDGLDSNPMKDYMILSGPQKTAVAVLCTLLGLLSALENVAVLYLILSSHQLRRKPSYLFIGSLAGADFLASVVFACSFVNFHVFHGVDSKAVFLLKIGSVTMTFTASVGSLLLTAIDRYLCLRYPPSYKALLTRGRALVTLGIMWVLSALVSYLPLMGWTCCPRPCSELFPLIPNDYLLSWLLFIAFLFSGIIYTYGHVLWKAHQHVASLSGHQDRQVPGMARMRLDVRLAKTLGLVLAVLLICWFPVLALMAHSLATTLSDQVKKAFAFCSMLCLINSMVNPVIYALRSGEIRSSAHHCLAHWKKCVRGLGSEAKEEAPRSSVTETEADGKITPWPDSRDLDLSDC
# Sequence of Cannabinoid receptor 1 (Rattus norvegicus) (P20272 whole entry): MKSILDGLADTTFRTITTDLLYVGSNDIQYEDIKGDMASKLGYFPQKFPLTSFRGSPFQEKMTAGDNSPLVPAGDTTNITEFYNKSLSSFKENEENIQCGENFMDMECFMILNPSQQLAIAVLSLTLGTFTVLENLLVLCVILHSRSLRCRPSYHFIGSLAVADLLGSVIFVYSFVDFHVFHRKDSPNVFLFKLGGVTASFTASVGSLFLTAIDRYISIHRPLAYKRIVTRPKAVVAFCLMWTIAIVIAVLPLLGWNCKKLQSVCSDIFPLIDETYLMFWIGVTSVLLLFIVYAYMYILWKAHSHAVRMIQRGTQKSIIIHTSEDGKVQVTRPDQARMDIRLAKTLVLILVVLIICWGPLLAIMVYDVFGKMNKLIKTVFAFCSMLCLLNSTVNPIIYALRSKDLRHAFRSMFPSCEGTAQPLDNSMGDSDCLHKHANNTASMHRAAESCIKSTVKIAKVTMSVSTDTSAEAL
# T1 sequence (P20272 whole entry): as above
# Sequence of Cannabinoid receptor 2 (Mus musculus, UniProt P47936) (P47936 whole entry): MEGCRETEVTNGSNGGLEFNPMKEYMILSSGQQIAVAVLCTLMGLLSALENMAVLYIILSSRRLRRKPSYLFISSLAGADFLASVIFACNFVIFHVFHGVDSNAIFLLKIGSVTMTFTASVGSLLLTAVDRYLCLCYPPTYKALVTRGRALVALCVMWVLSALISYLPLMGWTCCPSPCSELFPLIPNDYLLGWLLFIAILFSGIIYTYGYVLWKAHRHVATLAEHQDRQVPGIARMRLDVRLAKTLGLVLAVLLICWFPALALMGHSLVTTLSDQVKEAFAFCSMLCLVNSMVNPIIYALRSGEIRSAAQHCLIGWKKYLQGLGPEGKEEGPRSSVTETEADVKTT
structure (smiles),measurement,setting,value
CC1=CC[C@H]2[C@H](C1)c1c(O)cc(/C(C)=N/OCCCC#N)cc1OC2(C)C,AUC,[1],257 ng·h/mL
same,AUC,[2],107 ng·h/mL
same,Emax,[3],51%
same,half-life,[4],> 60 min
same,Activity,Mus musculus [5],Active
same,half-life,[6],47.3 min
same,Ki,Cannabinoid receptor 1 [7],0.9 nM
same,AUC,[8],1060 ng·h/mL
same,AUC,[9],900 ng·h/mL
same,AUC,[10],710 ng·h/mL
same,half-life,[11],12 min
same,EC50,Cannabinoid receptor 2 [12],12 nM
same,Ki,Cannabinoid receptor 2 [13],1.3 nM
same,AUC,[14],124 ng·h/mL
same,Activity,Rattus norvegicus [15],inactive
same,Ratio AUC,[16],0.86
same,Tmax,[17],60 min
same,half-life,[18],13 min
same,Activity,Rattus norvegicus [19],inactive
same,EC50,Cannabinoid receptor 1 [20]; read-out: EC50,4.4 nM
same,Emax,Cannabinoid receptor 2 [21],47%
same,half-life,[22],> 60 min
same,Activity,Rattus norvegicus [23],Active
same,Ratio AUC,[24],0.49
same,AUC,[25],580 ng·h/mL
same,AUC,[26],5390 ng·h/mL
same,AUC,[27],154 ng·h/mL
same,half-life,[28],35.2 min
same,AUC,[29],308 ng·h/mL
same,Ki,Cannabinoid receptor 2 [30],2.6 nM
same,Ratio AUC,[31],1.24
same,Ratio AUC,[32],0.99
same,AUC,[33],957 ng·h/mL
same,Vd,[34],2.16 L/kg
same,Activity,Mus musculus [35],Dose-dependent effect
same,ED50,Mus musculus [35],1.42 mg/kg
same,Ratio AUC,[36],0.09
same,AUC,[37],443 ng·h/mL
same,Ratio AUC,[38],2.06
same,Ratio AUC,[39],0.64
same,half-life,[40],> 60 min
same,Ratio AUC,[41],5.98
same,inhibition,[42],44%
same,Ratio AUC,[43],5.72
same,Vd,Mus musculus [44],68.042 L/kg
same,AUC,[45],1240 ng·h/mL
same,inhibition,[46],23%
same,half-life,[47],> 60 min
same,Ratio AUC,[48],2.48
same,AUC,[49],11.3 ng·h/mL
same,AUC,[50],890 ng·h/mL
same,half-life,[51],9 min
same,Ratio AUC,[52],1.06
same,deltaT,Rattus norvegicus [53],4.5 to 7.7 °C
CC1=CC[C@H]2[C@H](C1)c1c(O)cc(/C(C)=N\OCCCc3ccccc3)cc1OC2(C)C,Ki,Cannabinoid receptor 1 [7],5 nM
same,EC50,Cannabinoid receptor 2 [12],1.7 nM
same,Ki,Cannabinoid receptor 2 [13],2.9 nM
same,EC50,Cannabinoid receptor 1 [20]; hek293,Not Active
same,Emax,Cannabinoid receptor 2 [21],98%
same,Ki,Cannabinoid receptor 2 [30],2.8 nM
CC1=CC[C@H]2[C@H](C1)c1c(O)cc(/C(C)=N/OCCN3CCOCC3)cc1OC2(C)C,Ki,Cannabinoid receptor 1 [7],7 nM
same,Ki,Cannabinoid receptor 2 [13],0.7 nM
same,Ki,Cannabinoid receptor 2 [30],1.8 nM
CC1=CC[C@H]2[C@H](C1)c1c(O)cc(/C(C)=N/OCCCC(F)(F)F)cc1OC2(C)C,Emax,[3],69%
same,Ki,Cannabinoid receptor 1 [7],0.3 nM
same,EC50,Cannabinoid receptor 2 [12],1 nM
same,Ki,Cannabinoid receptor 2 [13],3 nM
same,EC50,Cannabinoid receptor 1 [20]; read-out: EC50,0.4 nM
same,Emax,Cannabinoid receptor 2 [21],43%
same,Ki,Cannabinoid receptor 2 [30],0.5 nM
CCCCCCC(C)(C)c1ccc([C@@H]2C[C@H](O)CC[C@H]2CCCO)c(O)c1,Emax,[3],70 to 85%
same,Emax,Cannabinoid receptor 2 [21],70 to 85%
CCCCCc1cc(O)c2c(c1)OC(C)(C)[C@H]1CC=C(C)C[C@H]21,Ki,Cannabinoid receptor 2 [30],40.4 nM
CCCC(C)O/N=C(/C)c1cc(O)c2c(c1)OC(C)(C)[C@H]1CC=C(C)C[C@H]21 (mixture of isomers),Ki,Cannabinoid receptor 1 [7],0.5 nM
same,EC50,Cannabinoid receptor 2 [12],11.5 nM
same,Ki,Cannabinoid receptor 2 [13],6.1 nM
same,EC50,Cannabinoid receptor 1 [20]; hek293,Not Active
same,Emax,Cannabinoid receptor 2 [21],260%
same,Ki,Cannabinoid receptor 2 [30],1.9 nM
CCCCCCC(C)(C)c1cc(O)c2c(c1)OC(C)(C)[C@H]1CC=C(C)C[C@H]21,Ki,Cannabinoid receptor 1 [7],0.77 nM
same,Ki,Cannabinoid receptor 2 [13],9 nM
same,Ki,Cannabinoid receptor 2 [30],3.2 nM
CC1=CC[C@H]2[C@H](C1)c1c(O)cc(/C(C)=N/OCCCc3ccccc3)cc1OC2(C)C,Emax,[3],27%
same,Ki,Cannabinoid receptor 1 [7],3 nM
same,EC50,Cannabinoid receptor 2 [12],1.65 nM
same,Ki,Cannabinoid receptor 2 [13],2.7 nM
same,EC50,Cannabinoid receptor 1 [20]; read-out: EC50,2.6 nM
same,Emax,Cannabinoid receptor 2 [21],35%
same,Ki,Cannabinoid receptor 2 [30],3.8 nM
